From article PMC6421522, “Designing Dual Inhibitors of Anaplastic Lymphoma Kinase (ALK) and Bromodomain-4 (BRD4) by Tuning Kinase Selectivity” (Journal of Medicinal Chemistry, 2019)

How the values were obtained:
Experiment in all cases: KINOMEscan scanEDGE
Format in all cases: binding
Conditions in all cases: read-out: % Control (1µM)
PAK1 = target: T1, PAK1 (Homo sapiens, UniProt Q13153)
T1 construct: purchased DiscoveRx KINOMEscan (scanEDGE); Thermo Fisher SelectScreen (Z'-LYTE) for PLK-1
Procedure: (§1) Compound X was assayed at 1 μM in the DiscoveRx KINOMEscan (scanEDGE) assay platform. The results for single-concentration binding interactions are reported as “%Ctrl” (DMSO = 100%Ctrl), where lower numbers indicate stronger hits.

MKNK2 = target: T2, MKNK2 (Homo sapiens, UniProt Q9HBH9)
T2 construct: purchased DiscoveRx KINOMEscan (scanEDGE); Thermo Fisher SelectScreen (Z'-LYTE) for PLK-1
Procedure: as §1

FLT3 = target: T3, FLT3 (Homo sapiens, UniProt P36888)
T3 construct: purchased DiscoveRx KINOMEscan (scanEDGE); Thermo Fisher SelectScreen (Z'-LYTE) for PLK-1
Procedure: as §1

CSF1R = target: T4, CSF1R (Homo sapiens, UniProt P07333)
T4 construct: purchased DiscoveRx KINOMEscan (scanEDGE); Thermo Fisher SelectScreen (Z'-LYTE) for PLK-1
Procedure: as §1

ADCK3 = target: T5, ADCK3 (Homo sapiens, UniProt Q8NI60)
T5 construct: purchased DiscoveRx KINOMEscan (scanEDGE); Thermo Fisher SelectScreen (Z'-LYTE) for PLK-1
Procedure: as §1

IKK-beta = target: T6, IKK-beta (Homo sapiens, UniProt O14920)
T6 construct: purchased DiscoveRx KINOMEscan (scanEDGE); Thermo Fisher SelectScreen (Z'-LYTE) for PLK-1
Procedure: as §1

BRAF(V600E) = target: T7, BRAF(V600E) (Homo sapiens, UniProt P15056, V600E)
T7 construct: purchased DiscoveRx KINOMEscan (scanEDGE); Thermo Fisher SelectScreen (Z'-LYTE) for PLK-1
Procedure: as §1

JNK1 = target: T8, JNK1 (Homo sapiens, UniProt P45983)
T8 construct: purchased DiscoveRx KINOMEscan (scanEDGE); Thermo Fisher SelectScreen (Z'-LYTE) for PLK-1
Procedure: as §1

SNARK = target: T9, SNARK (Homo sapiens, UniProt Q9H093)
T9 construct: purchased DiscoveRx KINOMEscan (scanEDGE); Thermo Fisher SelectScreen (Z'-LYTE) for PLK-1
Procedure: as §1

MET = target: T10, MET (Homo sapiens, UniProt P08581)
T10 construct: purchased DiscoveRx KINOMEscan (scanEDGE); Thermo Fisher SelectScreen (Z'-LYTE) for PLK-1
Procedure: as §1

PDGFRA = target: T11, PDGFRA (Homo sapiens, UniProt P16234)
T11 construct: purchased DiscoveRx KINOMEscan (scanEDGE); Thermo Fisher SelectScreen (Z'-LYTE) for PLK-1
Procedure: as §1

PCTK1 = target: T12, PCTK1 (Homo sapiens, UniProt Q00536)
T12 construct: purchased DiscoveRx KINOMEscan (scanEDGE); Thermo Fisher SelectScreen (Z'-LYTE) for PLK-1
Procedure: as §1

IGF1R = target: T13, IGF1R (Homo sapiens, UniProt P08069)
T13 construct: purchased DiscoveRx KINOMEscan (scanEDGE); Thermo Fisher SelectScreen (Z'-LYTE) for PLK-1
Procedure: as §1

DYRK1B = target: T14, DYRK1B (Homo sapiens, UniProt Q9Y463)
T14 construct: purchased DiscoveRx KINOMEscan (scanEDGE); Thermo Fisher SelectScreen (Z'-LYTE) for PLK-1
Procedure: as §1

ABL1-phosphorylated = target: T15, ABL1-phosphorylated (Homo sapiens, UniProt P00519)
T15 construct: purchased DiscoveRx KINOMEscan (scanEDGE); Thermo Fisher SelectScreen (Z'-LYTE) for PLK-1
Procedure: as §1

[1] = target: T16, ABL1(E255K)-phosphorylated (Homo sapiens, UniProt P00519, E255K)
T16 construct: purchased DiscoveRx KINOMEscan (scanEDGE); Thermo Fisher SelectScreen (Z'-LYTE) for PLK-1
Procedure: as §1

[2] = target: T17, JAK3(JH1domain-catalytic) (Homo sapiens, UniProt P52333)
T17 construct: JAK3(JH1domain-catalytic); purchased DiscoveRx KINOMEscan (scanEDGE); Thermo Fisher SelectScreen (Z'-LYTE) for PLK-1
Procedure: as §1

PIK3CG = target: T18, PIK3CG (Homo sapiens, UniProt P48736)
T18 construct: purchased DiscoveRx KINOMEscan (scanEDGE); Thermo Fisher SelectScreen (Z'-LYTE) for PLK-1
Procedure: as §1

GSK3B = target: T19, GSK3B (Homo sapiens, UniProt P49841)
T19 construct: purchased DiscoveRx KINOMEscan (scanEDGE); Thermo Fisher SelectScreen (Z'-LYTE) for PLK-1
Procedure: as §1

CHEK1 = target: T20, CHEK1 (Homo sapiens, UniProt O14757)
T20 construct: purchased DiscoveRx KINOMEscan (scanEDGE); Thermo Fisher SelectScreen (Z'-LYTE) for PLK-1
Procedure: as §1

VEGFR2 = target: T21, VEGFR2 (Homo sapiens, UniProt P35968)
T21 construct: purchased DiscoveRx (DiscoverX)
Procedure: as §1

BMPR2 = target: T22, BMPR2 (Homo sapiens, UniProt Q13873)
T22 construct: purchased DiscoveRx KINOMEscan (scanEDGE); Thermo Fisher SelectScreen (Z'-LYTE) for PLK-1
Procedure: as §1

AXL = target: T23, AXL (Homo sapiens, UniProt P30530)
T23 construct: purchased DiscoveRx KINOMEscan (scanEDGE); Thermo Fisher SelectScreen (Z'-LYTE) for PLK-1
Procedure: as §1

DCAMKL1 = target: T24, DCAMKL1 (Homo sapiens, UniProt O15075)
T24 construct: purchased DiscoveRx KINOMEscan (scanEDGE); Thermo Fisher SelectScreen (Z'-LYTE) for PLK-1
Procedure: as §1

ROCK2 = target: T25, ROCK2 (Homo sapiens, UniProt O75116)
T25 construct: purchased DiscoveRx KINOMEscan (scanEDGE); Thermo Fisher SelectScreen (Z'-LYTE) for PLK-1
Procedure: as §1

CDK9 = target: T26, CDK9 (Homo sapiens, UniProt P50750)
T26 construct: purchased DiscoveRx KINOMEscan (scanEDGE); Thermo Fisher SelectScreen (Z'-LYTE) for PLK-1
Procedure: as §1

FGFR2 = target: T27, FGFR2 (Homo sapiens, UniProt P21802)
T27 construct: purchased DiscoveRx KINOMEscan (scanEDGE); Thermo Fisher SelectScreen (Z'-LYTE) for PLK-1
Procedure: as §1

TIE2 = target: T28, TIE2 (Homo sapiens, UniProt Q02763)
T28 construct: purchased DiscoveRx KINOMEscan (scanEDGE); Thermo Fisher SelectScreen (Z'-LYTE) for PLK-1
Procedure: as §1

MARK3 = target: T29, MARK3 (Homo sapiens, UniProt P27448)
T29 construct: purchased DiscoveRx KINOMEscan (scanEDGE); Thermo Fisher SelectScreen (Z'-LYTE) for PLK-1
Procedure: as §1

[3] = target: T30, TYK2(JH1domain-catalytic) (Homo sapiens, UniProt P29597)
T30 construct: TYK2(JH1domain-catalytic); purchased DiscoveRx KINOMEscan (scanEDGE); Thermo Fisher SelectScreen (Z'-LYTE) for PLK-1
Procedure: as §1

AURKA = target: T31, AURKA (Homo sapiens, UniProt O14965)
T31 construct: purchased DiscoveRx KINOMEscan (scanEDGE); Thermo Fisher SelectScreen (Z'-LYTE) for PLK-1
Procedure: as §1

ERBB4 = target: T32, ERBB4 (Homo sapiens, UniProt Q15303)
T32 construct: purchased DiscoveRx KINOMEscan (scanEDGE); Thermo Fisher SelectScreen (Z'-LYTE) for PLK-1
Procedure: as §1

ERK1 = target: T33, ERK1 (Homo sapiens, UniProt P27361)
T33 construct: purchased DiscoveRx KINOMEscan (scanEDGE); Thermo Fisher SelectScreen (Z'-LYTE) for PLK-1
Procedure: as §1

PDPK1 = target: T34, PDPK1 (Homo sapiens, UniProt O15530)
T34 construct: purchased DiscoveRx KINOMEscan (scanEDGE); Thermo Fisher SelectScreen (Z'-LYTE) for PLK-1
Procedure: as §1

ABL1-nonphosphorylated = target: T35, ABL1-nonphosphorylated (Homo sapiens, UniProt P00519)
T35 construct: purchased DiscoveRx KINOMEscan (scanEDGE); Thermo Fisher SelectScreen (Z'-LYTE) for PLK-1
Procedure: as §1

KIT(V559D,T670I) = target: T36, KIT(V559D,T670I) (Homo sapiens, UniProt P10721, T670I/V559D)
T36 construct: purchased DiscoveRx KINOMEscan (scanEDGE); Thermo Fisher SelectScreen (Z'-LYTE) for PLK-1
Procedure: as §1

ULK2 = target: T37, ULK2 (Homo sapiens, UniProt Q8IYT8)
T37 construct: purchased DiscoveRx (DiscoverX)
Procedure: as §1

CDK11 = target: T38, CDK11 (Homo sapiens, UniProt Q9BWU1)
T38 construct: purchased DiscoveRx KINOMEscan (scanEDGE); Thermo Fisher SelectScreen (Z'-LYTE) for PLK-1
Procedure: as §1

RAF1 = target: T39, RAF1 (Homo sapiens, UniProt P04049)
T39 construct: purchased DiscoveRx KINOMEscan (scanEDGE); Thermo Fisher SelectScreen (Z'-LYTE) for PLK-1
Procedure: as §1

BTK = target: T40, BTK (Homo sapiens, UniProt Q06187)
T40 construct: purchased DiscoveRx KINOMEscan (scanEDGE); Thermo Fisher SelectScreen (Z'-LYTE) for PLK-1
Procedure: as §1

PIK3C2B = target: T41, PIK3C2B (Homo sapiens, UniProt O00750)
T41 construct: purchased DiscoveRx KINOMEscan (scanEDGE); Thermo Fisher SelectScreen (Z'-LYTE) for PLK-1
Procedure: as §1

T39 sequence (P04049 whole entry): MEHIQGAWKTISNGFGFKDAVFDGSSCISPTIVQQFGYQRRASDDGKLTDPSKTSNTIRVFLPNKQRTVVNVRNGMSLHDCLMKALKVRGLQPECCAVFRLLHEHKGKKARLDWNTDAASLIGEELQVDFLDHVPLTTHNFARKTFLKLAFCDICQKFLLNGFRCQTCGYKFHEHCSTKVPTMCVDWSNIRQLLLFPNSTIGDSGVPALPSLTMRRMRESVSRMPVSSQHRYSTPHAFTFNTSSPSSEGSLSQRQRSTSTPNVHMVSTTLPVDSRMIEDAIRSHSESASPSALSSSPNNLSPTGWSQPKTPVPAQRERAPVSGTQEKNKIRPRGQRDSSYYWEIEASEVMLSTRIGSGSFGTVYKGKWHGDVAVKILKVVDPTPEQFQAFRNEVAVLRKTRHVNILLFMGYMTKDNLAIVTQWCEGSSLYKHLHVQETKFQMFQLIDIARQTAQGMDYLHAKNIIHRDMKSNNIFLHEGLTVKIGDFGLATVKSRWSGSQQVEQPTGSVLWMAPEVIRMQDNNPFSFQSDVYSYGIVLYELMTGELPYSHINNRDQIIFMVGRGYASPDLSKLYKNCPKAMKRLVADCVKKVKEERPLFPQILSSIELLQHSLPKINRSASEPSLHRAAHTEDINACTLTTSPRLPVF
T22 sequence (Q13873 27-1038): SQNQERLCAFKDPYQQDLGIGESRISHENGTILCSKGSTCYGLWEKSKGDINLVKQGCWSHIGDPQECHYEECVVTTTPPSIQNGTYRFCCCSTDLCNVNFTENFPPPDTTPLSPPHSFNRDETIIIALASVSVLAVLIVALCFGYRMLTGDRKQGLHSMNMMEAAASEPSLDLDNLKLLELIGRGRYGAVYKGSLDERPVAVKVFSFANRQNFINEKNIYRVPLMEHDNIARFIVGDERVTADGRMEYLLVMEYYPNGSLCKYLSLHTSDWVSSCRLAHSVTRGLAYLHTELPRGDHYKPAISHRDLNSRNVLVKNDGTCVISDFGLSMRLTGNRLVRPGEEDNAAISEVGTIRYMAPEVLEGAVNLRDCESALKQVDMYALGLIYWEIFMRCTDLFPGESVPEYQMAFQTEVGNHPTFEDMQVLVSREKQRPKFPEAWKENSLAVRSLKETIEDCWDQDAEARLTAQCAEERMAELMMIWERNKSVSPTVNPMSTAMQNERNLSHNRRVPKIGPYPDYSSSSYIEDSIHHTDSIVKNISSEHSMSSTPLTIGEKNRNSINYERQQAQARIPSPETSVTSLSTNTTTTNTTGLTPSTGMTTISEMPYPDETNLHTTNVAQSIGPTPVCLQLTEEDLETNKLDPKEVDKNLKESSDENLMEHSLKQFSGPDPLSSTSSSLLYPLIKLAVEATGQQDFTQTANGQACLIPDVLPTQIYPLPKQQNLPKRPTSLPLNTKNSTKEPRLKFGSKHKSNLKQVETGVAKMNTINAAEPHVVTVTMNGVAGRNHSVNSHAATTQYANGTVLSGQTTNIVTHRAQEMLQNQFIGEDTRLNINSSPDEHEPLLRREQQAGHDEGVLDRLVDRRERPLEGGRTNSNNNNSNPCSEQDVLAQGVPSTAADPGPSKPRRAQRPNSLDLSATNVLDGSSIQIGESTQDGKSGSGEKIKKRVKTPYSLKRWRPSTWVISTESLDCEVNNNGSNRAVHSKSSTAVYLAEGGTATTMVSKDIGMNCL
T18 sequence (P48736 whole entry): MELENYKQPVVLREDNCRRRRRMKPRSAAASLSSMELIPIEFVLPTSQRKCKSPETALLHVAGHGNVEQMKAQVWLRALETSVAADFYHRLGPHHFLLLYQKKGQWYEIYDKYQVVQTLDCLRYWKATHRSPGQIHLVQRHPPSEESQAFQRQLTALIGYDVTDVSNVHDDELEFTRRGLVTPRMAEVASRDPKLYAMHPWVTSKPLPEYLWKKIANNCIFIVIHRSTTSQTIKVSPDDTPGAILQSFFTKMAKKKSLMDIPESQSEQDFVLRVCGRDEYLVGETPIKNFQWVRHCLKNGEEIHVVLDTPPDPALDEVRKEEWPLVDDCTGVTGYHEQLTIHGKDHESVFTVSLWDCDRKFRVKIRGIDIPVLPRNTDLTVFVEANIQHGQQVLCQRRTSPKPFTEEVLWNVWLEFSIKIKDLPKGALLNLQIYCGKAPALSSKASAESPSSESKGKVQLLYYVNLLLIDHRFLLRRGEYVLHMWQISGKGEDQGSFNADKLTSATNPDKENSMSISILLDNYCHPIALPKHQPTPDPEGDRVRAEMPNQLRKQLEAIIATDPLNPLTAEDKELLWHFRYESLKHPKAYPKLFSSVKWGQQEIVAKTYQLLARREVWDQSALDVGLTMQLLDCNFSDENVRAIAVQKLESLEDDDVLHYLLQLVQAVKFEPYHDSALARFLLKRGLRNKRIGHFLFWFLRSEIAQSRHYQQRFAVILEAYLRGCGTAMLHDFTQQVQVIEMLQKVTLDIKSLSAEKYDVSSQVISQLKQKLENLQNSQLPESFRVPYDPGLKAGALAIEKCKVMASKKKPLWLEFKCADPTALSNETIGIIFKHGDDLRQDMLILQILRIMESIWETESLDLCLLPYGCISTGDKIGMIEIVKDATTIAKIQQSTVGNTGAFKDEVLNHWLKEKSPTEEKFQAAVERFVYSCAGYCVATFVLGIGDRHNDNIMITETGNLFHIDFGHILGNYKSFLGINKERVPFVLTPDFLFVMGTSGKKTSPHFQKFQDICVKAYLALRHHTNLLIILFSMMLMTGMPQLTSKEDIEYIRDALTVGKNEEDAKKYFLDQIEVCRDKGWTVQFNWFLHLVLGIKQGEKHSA
T11 sequence (P16234 24-1089): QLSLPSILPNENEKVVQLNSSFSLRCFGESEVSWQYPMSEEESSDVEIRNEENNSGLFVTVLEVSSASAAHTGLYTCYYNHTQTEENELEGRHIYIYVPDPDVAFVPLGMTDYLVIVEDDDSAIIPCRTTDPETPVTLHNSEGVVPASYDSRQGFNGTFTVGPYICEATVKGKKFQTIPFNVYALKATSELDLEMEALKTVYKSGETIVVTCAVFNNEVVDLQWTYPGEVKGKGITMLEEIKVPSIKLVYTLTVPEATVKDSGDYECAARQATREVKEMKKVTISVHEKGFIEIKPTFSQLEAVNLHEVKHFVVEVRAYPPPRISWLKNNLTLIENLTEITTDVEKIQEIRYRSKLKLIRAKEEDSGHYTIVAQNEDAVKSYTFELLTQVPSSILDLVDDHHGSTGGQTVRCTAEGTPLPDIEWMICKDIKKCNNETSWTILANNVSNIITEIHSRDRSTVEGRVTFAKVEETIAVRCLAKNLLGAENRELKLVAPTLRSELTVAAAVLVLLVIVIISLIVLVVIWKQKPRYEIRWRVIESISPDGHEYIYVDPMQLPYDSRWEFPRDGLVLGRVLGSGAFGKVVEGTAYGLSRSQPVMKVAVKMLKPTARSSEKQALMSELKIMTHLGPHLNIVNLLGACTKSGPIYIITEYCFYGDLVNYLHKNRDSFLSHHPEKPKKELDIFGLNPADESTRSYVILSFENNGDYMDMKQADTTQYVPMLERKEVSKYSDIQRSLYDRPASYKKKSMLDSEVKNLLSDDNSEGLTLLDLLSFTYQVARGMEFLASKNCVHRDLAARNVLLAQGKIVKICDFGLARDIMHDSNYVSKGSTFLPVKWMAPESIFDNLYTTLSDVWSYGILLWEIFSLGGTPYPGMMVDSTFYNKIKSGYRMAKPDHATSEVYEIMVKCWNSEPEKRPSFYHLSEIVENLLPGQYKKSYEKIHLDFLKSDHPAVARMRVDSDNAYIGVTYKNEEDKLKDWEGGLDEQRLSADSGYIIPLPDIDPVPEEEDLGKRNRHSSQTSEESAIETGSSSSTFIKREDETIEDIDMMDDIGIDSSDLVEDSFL
T23 sequence (P30530 26-894): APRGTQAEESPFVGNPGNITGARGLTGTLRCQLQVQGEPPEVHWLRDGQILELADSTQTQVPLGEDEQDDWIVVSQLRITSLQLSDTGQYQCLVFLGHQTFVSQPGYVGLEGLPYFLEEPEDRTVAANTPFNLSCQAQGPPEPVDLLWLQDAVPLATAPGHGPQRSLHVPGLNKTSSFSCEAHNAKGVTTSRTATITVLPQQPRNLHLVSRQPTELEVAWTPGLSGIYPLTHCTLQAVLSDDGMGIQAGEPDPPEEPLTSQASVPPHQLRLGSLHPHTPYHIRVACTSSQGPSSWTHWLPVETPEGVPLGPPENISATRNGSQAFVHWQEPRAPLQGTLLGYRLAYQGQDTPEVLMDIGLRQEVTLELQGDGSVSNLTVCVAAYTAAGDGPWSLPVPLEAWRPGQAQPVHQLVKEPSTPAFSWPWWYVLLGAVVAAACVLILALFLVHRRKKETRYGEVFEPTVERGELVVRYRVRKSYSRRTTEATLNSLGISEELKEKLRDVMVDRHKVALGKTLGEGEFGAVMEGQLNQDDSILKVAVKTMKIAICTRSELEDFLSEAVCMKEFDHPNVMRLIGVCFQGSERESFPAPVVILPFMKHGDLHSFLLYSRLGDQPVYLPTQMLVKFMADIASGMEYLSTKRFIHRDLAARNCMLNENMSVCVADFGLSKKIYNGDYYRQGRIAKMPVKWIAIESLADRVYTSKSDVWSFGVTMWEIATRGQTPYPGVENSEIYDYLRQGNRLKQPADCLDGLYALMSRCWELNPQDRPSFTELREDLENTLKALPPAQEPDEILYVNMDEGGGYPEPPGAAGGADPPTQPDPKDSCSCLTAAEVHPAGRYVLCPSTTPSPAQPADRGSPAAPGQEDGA
T17 sequence (P52333 811-1124 limits assumed): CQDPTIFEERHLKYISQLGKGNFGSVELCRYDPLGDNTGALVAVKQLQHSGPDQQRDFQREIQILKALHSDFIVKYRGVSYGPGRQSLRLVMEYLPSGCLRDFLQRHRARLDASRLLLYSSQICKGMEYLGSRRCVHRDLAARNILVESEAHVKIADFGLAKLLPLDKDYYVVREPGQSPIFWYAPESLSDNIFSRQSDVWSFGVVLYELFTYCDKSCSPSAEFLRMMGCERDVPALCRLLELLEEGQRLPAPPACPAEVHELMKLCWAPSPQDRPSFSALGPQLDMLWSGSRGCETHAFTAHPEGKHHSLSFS

remaining binding at 1 µM (PAK1): 100%
remaining binding at 1 µM (MKNK2): 60%
remaining binding at 1 µM (FLT3): 100%
remaining binding at 1 µM (CSF1R): 100%
remaining binding at 1 µM (ADCK3): 100%
remaining binding at 1 µM (IKK-beta): 100%
remaining binding at 1 µM (BRAF(V600E)): 98%
remaining binding at 1 µM (JNK1): 64%
remaining binding at 1 µM (SNARK): 100%
remaining binding at 1 µM (MET): 94%
remaining binding at 1 µM (PDGFRA): 96%
remaining binding at 1 µM (PCTK1): 95%
remaining binding at 1 µM (IGF1R): 77%
remaining binding at 1 µM (DYRK1B): 63%
remaining binding at 1 µM (ABL1-phosphorylated): 100%
remaining binding at 1 µM [1]: 100%
remaining binding at 1 µM [2]: 100%
remaining binding at 1 µM (PIK3CG): 98%
remaining binding at 1 µM (GSK3B): 82%
remaining binding at 1 µM (CHEK1): 100%
remaining binding at 1 µM (VEGFR2): 87%
remaining binding at 1 µM (BMPR2): 100%
remaining binding at 1 µM (AXL): 98%
remaining binding at 1 µM (DCAMKL1): 100%
remaining binding at 1 µM (ROCK2): 100%
remaining binding at 1 µM (CDK9): 100%
remaining binding at 1 µM (FGFR2): 100%
remaining binding at 1 µM (TIE2): 99%
remaining binding at 1 µM (MARK3): 100%
remaining binding at 1 µM [3]: 100%
remaining binding at 1 µM (AURKA): 99%
remaining binding at 1 µM (ERBB4): 93%
remaining binding at 1 µM (ERK1): 100%
remaining binding at 1 µM (PDPK1): 98%
remaining binding at 1 µM (ABL1-nonphosphorylated): 84%
remaining binding at 1 µM (KIT(V559D,T670I)): 100%
remaining binding at 1 µM (ULK2): 64%
remaining binding at 1 µM (CDK11): 93%
remaining binding at 1 µM (RAF1): 100%
remaining binding at 1 µM (BTK): 100%
remaining binding at 1 µM (PIK3C2B): 88%
SMILES: CCOc1cc(C2CCN(C)CC2)ccc1Nc1ncc2c(n1)N(Cc1cc(C)cs1)[C@H](CC)C(=O)N2C [16k, (R)-2-((2-Ethoxy-4-(1-methylpiperidin-4-yl)phenyl)amino)-7-ethyl-5-methyl-8-((4-methylthiophen-2-yl)methyl)-7,8-dihydropteridin-6(5H)-one]
